The assay deals with Nicotinamide phosphoribosyltransferase (Homo sapiens, UniProt P43490). Put plainly: NMN Fluorescence Biochemical Assay. The method, then:
Compounds described herein were assayed for their ability to stimulate the synthesis of nicotinamide mononucleotide (NMN) by the enzyme NAMPT. The human recombinant enzyme assay measures the activation of the enzyme activity by compounds using recombinant enzyme and substrates in a buffered cell-free system. The assay conditions closely mimic cellular environments. Dose responses were measured using an assay to detect the formation of nicotinamide mono-nucleotide. All experiments were performed in the 384-well format. Generally, 0.5 μL of DMSO containing varying concentrations of the test compound was mixed with 10 μL of the enzyme reagent solution. Enzyme reactions were initiated with the addition of […] containing the substrates. The final assay conditions were as follows: 6 nM human NAMPT, 2.5 mM ATP, 20 μM PRPP and 150 μM nicotinamide in 50 mM HEPES, pH 7.2, 1 mM DTT, 1 mM CHAPS 50 mM NaCl, 100 mM MgCl2. Following an incubation of 60 min at ambient temperature, 10 μL of 20% acetophenone in DMSO was added, followed by 10 μL of 2 M KOH and 40 μL of formic acid. The plates were read for fluorescence (Excitation/Emission=355 nm/460 nm) using an EnVision plate reader after 40 mins of incubation at ambient temperature.

The values below come from BindingDB's records for patent US20240279215 (Cytokinetics, Incorporated, 2024).

The structures appear in SMILES notation.

What is called EC50 is the concentration that produces a half-maximal response. A higher EC50 goes with a less potent agent.

Chain of Nicotinamide phosphoribosyltransferase (P43490 whole entry): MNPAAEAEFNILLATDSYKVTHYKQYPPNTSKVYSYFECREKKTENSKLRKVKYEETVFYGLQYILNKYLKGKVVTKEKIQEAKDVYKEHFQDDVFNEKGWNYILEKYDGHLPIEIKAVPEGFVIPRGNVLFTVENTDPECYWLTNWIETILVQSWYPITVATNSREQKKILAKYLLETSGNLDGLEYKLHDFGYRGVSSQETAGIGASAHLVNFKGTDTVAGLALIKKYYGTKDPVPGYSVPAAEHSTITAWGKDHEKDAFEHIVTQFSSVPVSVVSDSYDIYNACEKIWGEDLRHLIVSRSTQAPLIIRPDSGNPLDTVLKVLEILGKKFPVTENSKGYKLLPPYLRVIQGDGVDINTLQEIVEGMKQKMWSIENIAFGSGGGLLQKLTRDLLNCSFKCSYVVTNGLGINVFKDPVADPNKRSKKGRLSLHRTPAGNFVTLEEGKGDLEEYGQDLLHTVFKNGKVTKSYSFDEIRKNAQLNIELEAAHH

The molecule `O=C(Nc1ccc(CC2CCN(CC(F)F)CC2)cc1)OCc1ccncc1` [US20240279215, Compound 52] came in with a 50% effective concentration (EC50) of 5.38 µM.

Molecule `O=C(Nc1ccc(CN2C(=O)CC[C@@H]2c2cccnc2)cc1)OCc1ccc(Cl)cc1` [US20240279215, Compound 249] gave an EC50 of 15.8 µM.

Molecule `CN(Cc1ccccc1)S(=O)(=O)c1ccc(NC(=O)OCc2ccc(Cl)cc2)cc1` [US20240279215, Compound 335] returned an EC50 of 7.94 µM.

Molecule `CN(C1CCOC1)S(=O)(=O)c1ccc(NC(=O)OCc2ccc(Cl)cc2)cc1` (centres undefined) [US20240279215, Compound 342] registered a half-maximal effective concentration (EC50) of 11.5 µM. This EC50 and that of the molecule before are within 1.5-fold of each other.
